Reference: patent US5972932A, “Anesthetic method and composition” (Eli Lilly and Company, priority 1997, dated 1999)

Columns and labels:
[1] = tested on: 5-HT2C (formorly knowm as 5-HT1C receptor) receptor; test: pharmacological studies, 5-HT2C receptor activity; conditions: formerly 5-HT1C receptor
[2] = tested on: muscarinic cholinergic receptor; test: pharmacological studies, muscarinic cholinergic receptor activity

For `Cc1cc2c(s1)Nc1ccccc1N=C2N1CCN(C)CC1` [olanzapine, 2-methyl-4-(4-methyl-1-piperazinyl)-10H-thieno[2,3-b][1,5]benzodiazepine], which “activity at the 5-HT2C receptor” value [1] is on record?
The value was “active”.

What about the “muscarinic cholinergic receptor activity” value [2] of the same compound?
Its value is “has muscarinic cholinergic receptor activity”.
